According to PMC4599074 (Drug Design, Development and Therapy, 2015):

Key:
[1] = biological target: T1, MAO-B (Homo sapiens, UniProt P27338); details: for SI (selectivity index for the MAO-B isoform): ratio IC50 (MAO-A)/IC50 (MAO-B)
T1 sequence (P27338 1-520): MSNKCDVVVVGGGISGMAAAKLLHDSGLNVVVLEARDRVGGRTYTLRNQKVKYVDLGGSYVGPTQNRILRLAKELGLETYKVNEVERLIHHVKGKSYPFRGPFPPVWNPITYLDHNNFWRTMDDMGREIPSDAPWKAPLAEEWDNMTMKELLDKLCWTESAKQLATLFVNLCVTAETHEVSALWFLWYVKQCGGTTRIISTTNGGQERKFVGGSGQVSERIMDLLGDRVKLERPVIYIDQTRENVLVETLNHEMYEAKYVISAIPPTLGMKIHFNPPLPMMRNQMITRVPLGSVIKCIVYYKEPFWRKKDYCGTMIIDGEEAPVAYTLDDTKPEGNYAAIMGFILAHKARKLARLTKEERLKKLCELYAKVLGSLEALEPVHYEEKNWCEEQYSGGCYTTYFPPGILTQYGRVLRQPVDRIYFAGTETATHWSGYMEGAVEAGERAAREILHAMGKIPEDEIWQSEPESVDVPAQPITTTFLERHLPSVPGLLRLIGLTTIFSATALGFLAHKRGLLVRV

[2] = biological target: T2, MAO-A (Homo sapiens, UniProt P21397); assay: biochemical
T2 sequence (P21397 1-527): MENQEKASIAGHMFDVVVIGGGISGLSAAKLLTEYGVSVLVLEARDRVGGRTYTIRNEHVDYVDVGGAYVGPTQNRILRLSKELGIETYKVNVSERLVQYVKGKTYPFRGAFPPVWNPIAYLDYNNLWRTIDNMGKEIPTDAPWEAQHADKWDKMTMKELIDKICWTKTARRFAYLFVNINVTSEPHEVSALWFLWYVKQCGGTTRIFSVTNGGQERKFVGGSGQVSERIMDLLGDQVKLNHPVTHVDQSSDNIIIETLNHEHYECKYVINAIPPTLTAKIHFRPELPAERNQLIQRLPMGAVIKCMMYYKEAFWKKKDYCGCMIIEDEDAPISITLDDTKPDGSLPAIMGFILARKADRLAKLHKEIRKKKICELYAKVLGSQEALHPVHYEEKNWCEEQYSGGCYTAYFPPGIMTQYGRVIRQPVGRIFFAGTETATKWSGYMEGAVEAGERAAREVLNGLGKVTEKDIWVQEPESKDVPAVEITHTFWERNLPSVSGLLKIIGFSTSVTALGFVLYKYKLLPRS

[3] = biological target: T1, MAO-B; assay: biochemical
[4] = biological target: T1, MAO-B; assay: Lineweaver–Burk plots, mode of inhibition and Ki for MAO-B; details: Ki for the inhibition of MAO-B, global (shared) fitting to the Michaelis–Menten equation, r2 = 0.99
[5] = biological target: T1, MAO-B; assay: Reversibility of MAO-B inhibition by dialysis of enzyme/inhibitor mixtures; type: biochemical; details: for residual MAO-B activity after dialysis (% of negative control): combined with MAO-B 15 minutes, dialyzed 24 hours, 5g at 4× IC50
[6] = biological target: T2, MAO-A; assay: Reversibility of MAO-A inhibition by dialysis of enzyme/inhibitor mixtures; details: for residual MAO-A activity after dialysis (% of negative control): combined with MAO-A 15 minutes, dialyzed 24 hours
[7] = biological target: T2, MAO-A; details: from IC50 values
[8] = biological target: T1, MAO-B; details: read-out: Km for oxidation by MAO-B; substrate Km, previous studies; cited from earlier work
[9] = biological target: T2, MAO-A; details: read-out: Km for oxidation by MAO-A; substrate Km, previous studies; cited from earlier work
[10] = undialyzed, inhibitor at 4× IC50

## O=C1COc2cc(OCc3ccccc3)ccc21 [5a, 6-(Benzyloxy)-2H-1-benzofuran-3-one]
[1]
  SI (selectivity index for the MAO-B isoform): 431
[2]
  IC50: 26700 ± 351 nM
[3]
  IC50: 62 ± 11 nM

## O=C1COc2cc(OCc3ccc(F)cc3)ccc21 [5b, 6-(4-Fluorobenzyloxy)-2H-1-benzofuran-3-one]
[1]
  SI (selectivity index for the MAO-B isoform): 518
[2]
  IC50: 11400 ± 2540 nM
[3]
  IC50: 22 ± 3 nM

## O=C1COc2cc(OCc3cccc(F)c3)ccc21 [5c, 6-(3-Fluorobenzyloxy)-2H-1-benzofuran-3-one]
[1]
  SI (selectivity index for the MAO-B isoform): 593
[2]
  IC50: 80700 ± 9220 nM
[3]
  IC50: 136 ± 30 nM

## O=C1COc2cc(OCc3ccc(Cl)cc3)ccc21 [5d, 6-(4-Chlorobenzyloxy)-2H-1-benzofuran-3-one]
[1]
  SI (selectivity index for the MAO-B isoform): 115
[2]
  IC50: 2190 ± 135 nM
[3]
  IC50: 19 ± 7 nM

## O=C1COc2cc(OCc3cccc(Cl)c3)ccc21 [5e, 6-(3-Chlorobenzyloxy)-2H-1-benzofuran-3-one]
[1]
  SI (selectivity index for the MAO-B isoform): 1,558
[2]
  IC50: 18700 ± 7820 nM
[3]
  IC50: 12 ± 3 nM

## O=C1COc2cc(OCc3ccc(Br)cc3)ccc21 [5f, 6-(4-Bromobenzyloxy)-2H-1-benzofuran-3-one]
[1]
  SI (selectivity index for the MAO-B isoform): 175
[2]
  IC50: 2800 ± 79 nM
[3]
  IC50: 16 ± 3 nM

## O=C1COc2cc(OCc3cccc(Br)c3)ccc21 [5g, 6-(3-Bromobenzyloxy)-2H-1-benzofuran-3-one]
[1]; from IC50 values
  fold more potent MAO-B inhibitor than lazabemide: 22 fold
[1]
  SI (selectivity index for the MAO-B isoform): 980
[2]
  IC50: 3920 ± 827 nM
[4]
  Ki: 3.4 ± 0.3 nM
[3]
  IC50: 4 ± 1 nM
[5]
  residual MAO-B activity after dialysis (% of negative control): 87%
[5]; dialysis 24 hours
  reversibility of MAO-B inhibition: reversible MAO-B inhibitor
[5]; [10]
  residual MAO-B activity of undialyzed mixtures (% of negative control): 42%

## O=C1COc2cc(OCc3ccc(I)cc3)ccc21 [5h, 6-(4-Iodobenzyloxy)-2H-1-benzofuran-3-one]
[2]
  IC50: > 100000 nM
[3]
  IC50: 28 ± 6 nM

## O=C1COc2cc(OCc3cccc(I)c3)ccc21 [5i, 6-(3-Iodobenzyloxy)-2H-1-benzofuran-3-one]
[1]
  SI (selectivity index for the MAO-B isoform): 1,081
[2]
  IC50: 7570 ± 1820 nM
[3]
  IC50: 7 ± 1 nM

## N#Cc1ccc(COc2ccc3c(c2)OCC3=O)cc1 [5j, 6-(4-Cyanobenzyloxy)-2H-1-benzofuran-3-one]
[1]
  SI (selectivity index for the MAO-B isoform): 63
[2]
  IC50: 5010 ± 919 nM
[3]
  IC50: 79 ± 19 nM

## N#Cc1cccc(COc2ccc3c(c2)OCC3=O)c1 [5k, 6-(3-Cyanobenzyloxy)-2H-1-benzofuran-3-one]
[6]; inhibitor at 4× IC50
  residual MAO-A activity after dialysis (% of negative control): 109%
[6]; dialysis 24 hours
  reversibility of MAO-A inhibition: reversible
[6]; [10]
  residual MAO-A activity of undialyzed mixtures (% of negative control): 65%
[1]
  SI (selectivity index for the MAO-B isoform): 3.5
[2]
  IC50: 586 ± 133 nM
[7]
  fold more potent MAO-A inhibitor than toloxatone: sixfold
[3]
  IC50: 166 ± 15 nM

## Cc1ccc(COc2ccc3c(c2)OCC3=O)cc1 [5l, 6-(4-Methylbenzyloxy)-2H-1-benzofuran-3-one]
[1]
  SI (selectivity index for the MAO-B isoform): >1,852
[2]
  IC50: > 100000 nM
[3]
  IC50: 54 ± 11 nM

## Cc1cccc(COc2ccc3c(c2)OCC3=O)c1 [5m, 6-(3-Methylbenzyloxy)-2H-1-benzofuran-3-one]
[1]
  SI (selectivity index for the MAO-B isoform): 646
[2]
  IC50: 62000 ± 16900 nM
[3]
  IC50: 96 ± 3 nM

## O=C1COc2cc(OCc3ccc(C(F)(F)F)cc3)ccc21 [5n, 6-[4-(Trifluoromethyl)benzyloxy]-2H-1-benzofuran-3-one]
[1]
  SI (selectivity index for the MAO-B isoform): >2,564
[2]
  IC50: > 100000 nM
[3]
  IC50: 39 ± 5 nM

## O=C1COc2cc(OCCc3ccccc3)ccc21 [5o, 6-(2-Phenylethoxy)-2H-1-benzofuran-3-one]
[1]
  SI (selectivity index for the MAO-B isoform): 129
[2]
  IC50: 13800 ± 2110 nM
[3]
  IC50: 107 ± 10 nM

## O=C1COc2cc(OCCCc3ccccc3)ccc21 [5p, 6-(3-Phenylpropoxy)-2H-1-benzofuran-3-one]
[1]
  SI (selectivity index for the MAO-B isoform): 215
[2]
  IC50: 11800 ± 930 nM
[3]
  IC50: 55 ± 8 nM

## O=C1COc2cc(OCCOc3ccccc3)ccc21 [5q, 6-(2-Phenoxyethoxy)-2H-1-benzofuran-3-one]
[1]
  SI (selectivity index for the MAO-B isoform): >2,000
[2]
  IC50: > 100000 nM
[3]
  IC50: 50 ± 6 nM

## O=C1COc2cc(OCCc3ccc(Br)cc3)ccc21 [5r, 6-[2-(4-Bromophenyl)ethoxy]-2H-1-benzofuran-3-one]
[1]
  SI (selectivity index for the MAO-B isoform): 4.7
[2]
  IC50: 2650 ± 629 nM
[3]
  IC50: 564 ± 49 nM

## Cc1ccc(CCOc2ccc3c(c2)OCC3=O)cc1 [5s, 6-[2-(4-Methylphenyl)ethoxy]-2H-1-benzofuran-3-one]
[1]
  SI (selectivity index for the MAO-B isoform): 11
[2]
  IC50: 11300 ± 683 nM
[3]
  IC50: 1050 ± 147 nM

## Cc1cccc(CCOc2ccc3c(c2)OCC3=O)c1 [5t, 6-[2-(3-Methylphenyl)ethoxy]-2H-1-benzofuran-3-one]
[1]
  SI (selectivity index for the MAO-B isoform): 143
[2]
  IC50: 25900 ± 8720 nM
[3]
  IC50: 181 ± 21 nM

## O=C1COc2cc(O)ccc21 [compound 6, 6-Hydroxy-3-coumaranone, reference compound]
[1]; from IC50 values
  fold weaker as MAO-B inhibitor compared to 5a: 193 fold
[2]
  IC50: > 100000 nM
[3]
  IC50: 12000 ± 4210 nM

## NCCC(=O)c1ccccc1N [kynuramine]
[8]
  Km: 29 µM
[9]
  Km: 41 µM

## C#CCN(C)Cc1ccccc1 [pargyline, reference compound]
[6]; inhibitor at 4× IC50
  residual MAO-A activity after dialysis (% of negative control): 1.6%

## (R)-deprenyl [reference compound]
[5]
  residual MAO-B activity after dialysis (% of negative control): 3.1%
